Experimental data from US20180077929A1, “METHODS AND SYSTEMS FOR TREATING MEDICAL DEVICES AND FLUIDS” (priority 2016, published 2018).
Several values for one entry are separate records, joined by “and”; a condition that tells them apart may be missing. Equal values may be shown once.

Columns and labels:
Type in all cases: biochemical
[1] = Detection of LPS after adding CaSt powder to water spiked with LPS (Kinetic Chromogenic Method, Endosafe MCS)
Protocol: Water and aqueous solutions (containing LPS with various sources of endotoxin) were exposed to calcium stearate [CaSt] […] 5 mL of water solution of known endotoxin concentration (generated by spiking endotoxin-free water with water solution of known endotoxin concentration) was added to the each test tube, vortexed vigorously (1 minute) using Fisher Scientific Digital Vortex Mixer, and then placed in a warm water bath (37° C.) for 1 hour. After 1 hour, the tubes were removed from warm water bath and vortexed vigorously (1 minute). Sterile syringes with needles were used to extract the solution without removing the calcium stearate. This solution was then tested for endotoxin levels. Kinetic Chromogenic Method for Endotoxin Quantitation, using Endosafe MCS Multi Cartridge System by Charles River Laboratories, Charleston S.C.
The total LPS added to test tubes was about 5 EU, with the detected LPS after the treatment was 3% to 8% of the initial concentration.
The total LPS added to test tubes was about 14400 EU, with the detected LPS after the treatment was 0.07%-0.08% of the initial concentration.
The total LPS added to test tubes was about 14400 EU, with the detected LPS after the treatment was CaSt dependent and was a function of the amount of CaSt added. CaSt addition ranged about 100 fold from 0.0027 g to 0.25 g, with the detected LPS after the treatment was ranging from 77% to 0.19% of respectively as a percent of the initial concentration. […] In summary, there are three factors that drive the stearates performance to remove/neutralize endotoxins. These three factors, not necessarily listed in order of importance, are concentration, time of exposure, and energy in solution at the micro level.

[2] = Suture testing in aqueous suspension of CaSt
Protocol: Treatment of sutures in aqueous suspensions of CaSt was performed as follows: Suture used was VICRYL® (Polyglactin 910) suture made of a copolymer made from 90% glycolide and 10% L-lactide, Size 1, 27 inch pieces. Endotoxin sources used were sitting (or stagnant) Rain Water (SRW) and diluted with LRW to obtain a concentration of (3980 EU/mL). Endosafe LAL Reagent Water (LRW) was used, manufactured by Charles River Laboratories, Charleston S.C.
Eight strands of suture were placed in tubing with LPS (endotoxin) solution for 10 minutes at a time. The sutures were dried for 20 minutes and then placed in round bottom tubes. Suspensions of 5% by weight CaSt in LAL Reagent Water were prepared. (0.5 g CaSt in 10 mL LRW). One suture was placed in each tube and vortexed in this solution for approximately 10 seconds. The sutures were removed and allowed to dry for 20 minutes and then placed in round bottom tubes. This was done for 3 sutures. Three pieces of suture, serving as the control, were not submerged in any solutions and placed in test tubes. 3 mL of LAL reagent water was added to each test tube, vortexed vigorously for 1 minute, and then placed in a hot water bath at 37° C. for 1 hour. They were then removed, vortexed vigorously for 1 minute, diluted, and tested on the MCS system. The water that was mixed with the calcium stearate was also tested. Two sutures were submerged in LRW that was mixed with calcium stearate. The LRW was separated from the calcium stearate before two sutures were submerged. These were also tested for endotoxin on the MCS.

[3] = Suture testing in Ethyl Acetate containing CaSt; settings: contaminated suture in Ethyl Acetate w/ 5% Calcium Stearate, 10 seconds; Ethyl Acetate alone 80.4 EU, no submersion 105.6 EU
Protocol: An absorbable VICRYL® (Polyglactin 910) suture (Size 1, Length: 27 in) made of a copolymer made from 90% glycolide and 10% L-lactide was exposed to a solution containing LPS (endotoxin) (9 Strands of Vicryl suture were immersed in tubing with endotoxin solution (SRW, Concentration: 3980 EU/mL) for 10 minutes at a time at ambient temperature. The sutures were air dried for 20 minutes in a vented chemical hood and then placed in round bottom and dried The suture was then immersed into Ethyl Acetate (EtAc) containing CaSt, vortexed briefly for 10 seconds, dried for 20 minutes in a vented chemical hood, and extracted in endotoxin free water at ambient temperature. The suture extracted in endotoxin free water (LRW) was then tested for LPS using the Kinetic Chromogenic Method for Endotoxin Quantitation, Charles River Laboratories, Charleston S.C.

[4] = Kinetics of removal of LPS with different agitation techniques and stearate salts; settings: for Endotoxin Detected: 5 mL SRW, baseline 1,502 EU; for Percent (%) Removed: SRW baseline 1,502 EU
Protocol: 5 mL of SRW was added to each of the tubes. Each solution was tested for endotoxin removal after agitation based on with sonication, vortexing, or test tube rolling. Sonication samples were sonicated at each indicated time interval for 30 seconds at a magnitude of 30. Vortex samples were vortexed at each indicated time interval for 30 seconds at 2500 RPM. Rolling samples were constantly rolling at 10 rpm. The samples were tested on the MCS for endotoxin at 1 minute, 20 minutes, 40 minutes, 60 minutes, and 80 minutes.

[5] = 0.0027 g CaSt in 5 mL water, 14,400 EU spiked
[6] = 0.0108 g CaSt in 5 mL water, 14,400 EU spiked
[7] = 0.0518 g CaSt in 5 mL water, 14,400 EU spiked
[8] = 0.2502 g CaSt in 5 mL water, 14,400 EU spiked
[9] = 0.254-0.2607 g CaSt powder in 5 mL water, 14,400 EU spiked, 0.254 g CaSt powder added
[10] = 0.254-0.2607 g CaSt powder in 5 mL water, 14,400 EU spiked, 0.2607 g CaSt powder added

## Calcium Stearate
[1]; [5]
  Endotoxin Detected: 11,055 EU
  Percent of detected Endotoxin vs. initial concentration: 77% and 76.77%
[1]; [6]
  Endotoxin Detected: 2,925 EU
  Percent of detected Endotoxin vs. initial concentration: 20% and 20.31%
[1]; [7]
  Endotoxin Detected: 9.4 EU
  Percent of detected Endotoxin vs. initial concentration: 0.07%
[1]; [8]
  Endotoxin Detected: 26.7 EU
  Percent of detected Endotoxin vs. initial concentration: 0.19%
[1]; 0.252-0.272 g CaSt powder in 5 mL water, 5.208 EU spiked, 37° C. 1 hour, 0.252 g CaSt powder added
  Percent of detected Endotoxin vs. initial concentration: <2.88%
[1]; 0.252-0.272 g CaSt powder in 5 mL water, 5.208 EU spiked, 37° C. 1 hour, 0.258 g CaSt powder added
  Percent of detected Endotoxin vs. initial concentration: <8.06%
[1]; 0.252-0.272 g CaSt powder in 5 mL water, 5.208 EU spiked, 37° C. 1 hour, 0.267 g CaSt powder added
  Percent of detected Endotoxin vs. initial concentration: <3.46%
[1]; [9]
  Endotoxin Detected: 12.1 EU
  Percent of detected Endotoxin vs. initial concentration: 0.08%
[1]; [10]
  Endotoxin Detected: 10.3 EU
  Percent of detected Endotoxin vs. initial concentration: 0.07%
[2]; Water with 5% Calcium Stearate, solution tested after suture removal
  Endotoxin Detected: <1.0 EU
[2]; sutures 4-6 in LAL Water w/5% Calcium Stearate vs. sutures not submerged
  Average Change in Endotoxin Level: −96.1%
[2]; sutures 4-6 in LAL Water w/5% Calcium Stearate, untreated average 84 EU
  Average Endotoxin Detected: 3.27 EU
[3]
  Endotoxin Detected: 23.4 EU and 21.78 EU and 25.62 EU
[4]; Rolling, 1 minute
  Endotoxin Detected: 1,230 EU
  Percent (%) Removed: 18.1%
[4]; Rolling, 20 minutes
  Endotoxin Detected: 1,050 EU
  Percent (%) Removed: 30.1%
[4]; Rolling, 40 minutes
  Endotoxin Detected: 630 EU
  Percent (%) Removed: 58.1%
[4]; Rolling, 60 minutes
  Endotoxin Detected: 637 EU
  Percent (%) Removed: 57.6%
[4]; Rolling, 80 minutes
  Endotoxin Detected: 451 EU
  Percent (%) Removed: 70%
[4]; Sonication, 1 minute
  Endotoxin Detected: 270 EU
  Percent (%) Removed: 82%
[4]; Sonication, 20 minutes
  Endotoxin Detected: 130 EU
  Percent (%) Removed: 91.3%
[4]; Sonication, 40 minutes
  Endotoxin Detected: 87.5 EU
  Percent (%) Removed: 94.2%
[4]; Sonication, 60 minutes
  Endotoxin Detected: 56.9 EU
  Percent (%) Removed: 96.2%
[4]; Sonication, 80 minutes
  Endotoxin Detected: 16.4 EU
  Percent (%) Removed: 98.9%
[4]; Vortexing, 1 minute
  Endotoxin Detected: 451 EU
  Percent (%) Removed: 70%
[4]; Vortexing, 20 minutes
  Endotoxin Detected: 301 EU
  Percent (%) Removed: 80%
[4]; Vortexing, 40 minutes
  Endotoxin Detected: 139 EU
  Percent (%) Removed: 90.7%
[4]; Vortexing, 60 minutes
  Endotoxin Detected: 173 EU
  Percent (%) Removed: 88.5%
[4]; Vortexing, 80 minutes
  Percent (%) Removed: 93.1%
